The values below come from patent US9822113B2, “Tricyclic compounds and process for preparation thereof” (Council of Scientific & Industrial Research, priority 2013, dated 2017).

Values after ≈ are worked out from the molar mass of the structure shown.

The test system of one experiment is Salmonella enterica strain AMC (ATCC #6539). The experiment is described as follows: Antibiotic assay: MIC by Promega Bac Titer-Glo microbial cell viability assay. Format: cell-based. Conditions: 24 hours treatment, inoculum ~5×10^4 CFU/mL, Mueller Hinton broth. Here is the method: In a preferred embodiment, the novel a novel tricyclic compounds of formula (I) and formula (II) are evaluated for anti-microbial activity. The minimum inhibitory concentrations (MICs) is determined using the Promega Bac Titer-Glo microbial cell viability assay. The assays is carried out using Salmonella enterica strain AMC (ATCC #6539), Inocula of S. enterica prepared from 12-h broth cultures grown in Mueller Hinton broth and the suspensions were then adjusted to a turbidity of 0.5 McFarland. […] Bacterial cells were treated with hunanamycin analogs for 24 hours at ranges from 0.4 to 40 μg/mL and ciprofloxacin as a control ranging from 0.03 to 10 μg/mL. The OD600 measured using an Envision multi-modal plate reader (Perkin-Elmer, Inc.).
The minimum inhibitory concentrations (MICs) were determined using the Promega Bac Titer-Glo microbial cell viability assay, which measures cell viability by quantitation of ATP present, an indicator of metabolic activity of cells. The assays were carried out using Salmonella enterica strain AMC (ATCC #6539), Inocula of S. enterica were prepared from 12-h broth cultures grown in Mueller Hinton broth and the suspensions were then adjusted to a turbidity of 0.5 McFarland. […] Bacterial cells were treated with hunanamycin analogs for 24 hours at ranges from 0.4 to 40 μg/mL and ciprofloxacin as a control ranging from 0.03 to 10 μg/mL. The OD600 was measured using an Envision multi-modal plate reader (Perkin-Elmer, Inc.). The antibiotic assays were performed in Prof. John B. MacMillan's lab, Department of Biochemistry, University of Texas Southwestern Medical Center at Dallas, USA.
Regarding `Cc1cc2c3c(c1C)C(C)(C)CCn3c(=O)c(=O)n2C[C@@H](O)[C@H](O)[C@H](O)CO` [Compound 3, 7,7,8,9-tetramethyl-1-((2R,3S,4R)-2,3,4,5-tetrahydroxy-pentyl)-6,7-dihydro-1H,5H-pyrido[1,2,3-de]quinoxaline-2,3-dione], the “MIC” value is 8 µg/mL (≈ 20.4 µM).

Take `CC1(C)CCn2c(=O)c(=O)n(C[C@@H](O)[C@H](O)[C@H](O)CO)c3cccc1c32` [Compound 8, 7,7-dimethyl-1-((2R,3S,4R)-2,3,4,5-tetrahydroxypentyl)-6,7-dihydro-1H,5H-pyrido[1,2,3-de]quinoxaline-2,3-dione]: the “MIC” value is above 16 µg/mL. Consider `CC1(C)CCn2c(=O)n(Cc3cn(CCO)nn3)c3cccc1c32` [Compound 24, 1-((1-(2-hydroxyethyl)-1H-1,2,3-triazol-4-yl)methyl)-6,6-dimethyl-5,6-dihydro-4H-imidazo[4,5,1-ij]quinolin-2(1H)-one], for which the “MIC” value was above 16 µg/mL.

Still in this experiment, the particulars now being: Salmonella enterica, ATCC6539, 24 h, 24 hours treatment, inoculum ~5×10^4 CFU/mL, Mueller Hinton broth.
As to `Cc1cc2c3c(c1C)C(C)(C)CCn3c(=O)c(=O)n2C[C@H](O)[C@H](O)[C@H](O)CO` (stereo in doubt) [Compound 2, 7,7,8,9-tetramethyl-1-((2S,3S,4R)-2,3,4,5-tetrahydroxypentyl)-6,7-dihydro-1H,5H-pyrido[1,2,3-de]quinoxaline-2,3-dione], 8 µg/mL (≈ 20.4 µM) was the least that counted as inhibitory (MIC). Take `CC1(C)CCn2c(=O)n(Cc3cn(CCO)nn3)c3cccc1c32` [1-((1-(2-hydroxyethyl)-1H-1,2,3-triazol-4-yl)methyl)-6,6-dimethyl-5,6-dihydro-4H-imidazo[4,5,1-ij]quinolin-2(1H)-one]: it took 8 µg/mL (≈ 24.4 µM) to inhibit growth (MIC). On to `Cc1cc2c3c(c1C)C(C)(C)CCn3c(=O)c(=O)n2C[C@@H](O)[C@H](O)[C@H](O)CO` [7,7,8,9-tetramethyl-1-((2R,3S,4R)-2,3,4,5-tetrahydroxy-pentyl)-6,7-dihydro-1H,5H-pyrido[1,2,3-de]quinoxaline-2,3-dione], for which the minimum inhibitory concentration (MIC) was determined as 8 µg/mL (≈ 20.4 µM). `Cc1cc2nc(OC[C@H](O)[C@H](O)[C@H](O)CO)c(=O)n3c2c(c1C)C(C)(C)CC3` [Compound 1, 7,7,8,9-tetramethyl-2-(((2S,3R,4R)-2,3,4,5-tetrahydroxy-pentyl)oxy)-6,7-dihydro-3H,5H-pyrido[1,2,3-de]quinoxalin-3-one] displayed an MIC of 8 µg/mL (≈ 20.4 µM). On to `CC1(C)CCn2c(=O)c(=O)n(CC(O)CO)c3cccc1c32` (stereo not drawn) [Compound 9, 1-(2,3-dihydroxypropyl)-7,7-dimethyl-6,7-dihydro-1H,5H-pyrido[1,2,3-de]quinoxaline-2,3-dione], for which the MIC was 8 µg/mL (≈ 26.3 µM).

The experiment is the same for the next values; noted with them: Salmonella enterica, ATCC6539, 24 h, 24 hours treatment, inoculum ~5×10^4 CFU/mL, Mueller Hinton broth, read-out: MIC.
Turning to `Cc1cc2c3c(c1C)C(C)(C)CCn3c(=O)c(=O)n2C[C@H](O)[C@H](O)[C@H](O)CO` [Compound 2, 7,7,8,9-tetramethyl-1-((2S,3S,4R)-2,3,4,5-tetrahydroxypentyl)-6,7-dihydro-1H,5H-pyrido[1,2,3-de]quinoxaline-2,3-dione], the minimal inhibitory concentration (MIC) came out at 8 µg/mL (≈ 20.4 µM). Consider `Cc1cc2c3c(c1C)C(C)(C)CCn3c(=O)c(=O)n2CC(O)CO` (stereo not drawn) [Compound 4, 1-(2,3-dihydroxypropyl)-7,7,8,9-tetramethyl-6,7-dihydro-1H,5H-pyrido[1,2,3-de]quinoxaline-2,3-dione], for which the minimum inhibitory concentration (MIC) is above 16 µg/mL. The same measure, in the same setting: the result for `Cc1cc2c3c(c1C)C(C)(C)CCn3c(=O)c(=O)n2CC(O)C(O)C(O)CO` (stereo not drawn) [Compound 5, 7,7,8,9-tetramethyl-1-(2,3,4,5-tetrahydroxypentyl)-6,7-dihydro-1H,5H-pyrido[1,2,3-de]quinoxaline-2,3-dione] reads 4 µg/mL (≈ 10.2 µM); that for `CC1(C)CCn2c(=O)c(OC[C@H](O)[C@H](O)[C@H](O)CO)nc3cccc1c32` [Compound 6, 7,7-dimethyl-2-(((2S,3R,4R)-2,3,4,5-tetrahydroxypentyl)oxy)-6,7-dihydro-3H,5H-pyrido[1,2,3-de]quinoxalin-3-one], above 16 µg/mL; that for `CC1(C)CCn2c(=O)c(=O)n(C[C@H](O)[C@H](O)[C@H](O)CO)c3cccc1c32` [Compound 7, 7,7-dimethyl-1-((2S,3S,4R)-2,3,4,5-tetrahydroxypentyl)-6,7-dihydro-1H,5H-pyrido[1,2,3-de]quinoxaline-2,3-dione], above 16 µg/mL.

Consider `CC1(C)CCn2c(=O)c(=O)n(C[C@@H](O)[C@H](O)[C@H](O)CO)c3cccc1c32` [Compound 8, 7,7-dimethyl-1-((2R,3S,4R)-2,3,4,5-tetrahydroxypentyl)-6,7-dihydro-1H,5H-pyrido[1,2,3-de]quinoxaline-2,3-dione], for which the minimum inhibitory concentration (MIC) was above 16 µg/mL. In the case of `CCOC(=O)Cn1cc(Cn2c(=O)c(=O)n3c4c(cccc42)C(C)(C)CC3)nn1` [Compound 10, ethyl 2-(4-((7,7-dimethyl-2,3-dioxo-2,3,6,7-tetrahydro-1H,5H-pyrido[1,2,3-de]quinoxalin-1-yl)methyl)-1H-1,2,3-triazol-1-yl)acetate], the MIC is above 16 µg/mL. As for `COC1O[C@H](Cn2c(=O)c(=O)n3c4c(cccc42)C(C)(C)CC3)[C@@H](O)[C@H]1O` (stereo partly drawn) [Compound 11, 1-(((2R,3S,4R)-3,4-dihydroxy-5-methoxytetrahydrofuran-2-yl)methyl)-7,7-dimethyl-6,7-dihydro-1H,5H-pyrido[1,2,3-de]quinoxaline-2,3-dione], the minimal inhibitory concentration (MIC) was above 16 µg/mL. In the case of `CC1(C)CCn2c(=O)c(=O)n(C[C@@H](O)[C@H](O)CO)c3cccc1c32` [Compound 12, 7,7-dimethyl-1-((2R,3R)-2,3,4-trihydroxybutyl)-6,7-dihydro-1H,5H-pyrido[1,2,3-de]quinoxaline-2,3-dione], the MIC is above 16 µg/mL. For the compound `CC1(C)CCn2c(=O)c(OC[C@H](O)[C@@H](O)CO)nc3cccc1c32` [Compound 13, 7,7-dimethyl-2-((2S,3S)-2,3,4-trihydroxybutoxy)-6,7-dihydro-3H,5H-pyrido[1,2,3-de]quinoxalin-3-one], the MIC was determined as 16 µg/mL (≈ 47.9 µM). Still for that read-out and setting: the result for `CC(O)C(O)Cn1c(=O)c(=O)n2c3c(cccc31)C(C)(C)CC2` (stereo not drawn) [Compound 14, 1-(2,3-dihydroxybutyl)-7,7-dimethyl-6,7-dihydro-1H,5H-pyrido[1,2,3-de]quinoxaline-2,3-dione] reads above 16 µg/mL. As for `CC1(C)CCn2c(=O)c(=O)n(CC(O)C(C)(C)O)c3cccc1c32` (stereo not drawn) [Compound 15, 1-(2,3-dihydroxy-3-methylbutyl)-7,7-dimethyl-6,7-dihydro-1H,5H-pyrido[1,2,3-de]quinoxaline-2,3-dione], the minimal inhibitory concentration (MIC) was above 16 µg/mL.

In the case of `CC1(C)CCn2c(=O)c(OC[C@H](O)CO)nc3cccc1c32` [Compound 16, (R)-2-(2,3-dihydroxypropoxy)-7,7-dimethyl-6,7-dihydro-3H,5H-pyrido[1,2,3-de]quinoxalin-3-one], the minimum inhibitory concentration (MIC) is above 16 µg/mL. Regarding `CC1(C)CCn2c(=O)n(C[C@H](O)[C@H](O)[C@H](O)CO)c3cccc1c32` [Compound 21, 6,6-dimethyl-1-((2S,3S,4R)-2,3,4,5-tetrahydroxypentyl)-5,6-dihydro-4H-imidazo[4,5,1-ij]quinolin-2(1H)-one], the minimal inhibitory concentration (MIC) came out at 4 µg/mL (≈ 11.9 µM). Still for that read-out and setting: the result for `CC1(C)CCn2c(=O)n(CC(O)CO)c3cccc1c32` (stereo not drawn) [Compound 23, 1-(2,3-dihydroxypropyl)-6,6-dimethyl-5,6-dihydro-4H-imidazo[4,5,1-ij]quinolin-2(1H)-one] reads above 16 µg/mL; that for `CCOC(=O)Cn1cc(Cn2c(=O)n3c4c(cccc42)C(C)(C)CC3)nn1` [Compound 24b, Ethyl 2-(4-((6,6-dimethyl-2-oxo-5,6-dihydro-4H-imidazo[4,5,1-ij]quinolin-1(2H)-yl)methyl)-1H-1,2,3-triazol-1-yl)acetate], 8 µg/mL (≈ 21.7 µM); that for `COC1O[C@H](Cn2c(=O)n3c4c(cccc42)C(C)(C)CC3)[C@@H](O)[C@H]1O` (stereo partly drawn) [Compound 25, 1-(((2R,3S,4R)-3,4-dihydroxy-5-methoxytetrahydrofuran-2-yl)methyl)-6,6-dimethyl-5,6-dihydro-4H-imidazo[4,5,1-ij]quinolin-2(1H)-one], 2 µg/mL (≈ 5.74 µM). Consider `CC1(C)CCn2c(=O)n(C[C@@H](O)[C@H](O)CO)c3cccc1c32` [Compound 26, 6,6-dimethyl-1-((2R,3R)-2,3,4-trihydroxybutyl)-5,6-dihydro-4H-imidazo[4,5,1-ij]quinolin-2(1H)-one], for which the MIC was above 16 µg/mL.

The subject of another experiment is Salmonella enterica.
Assay: not given
Conditions: against the bacterial pathogen Salmonella enterica; literature value; cited from earlier work.
On to `Cc1cc2c3c(c1C)C(C)(C)CCn3c(=O)c(=O)n2C[C@H](O)[C@H](O)[C@H](O)CO` (stereo in doubt) [Compound 2, 7,7,8,9-tetramethyl-1-((2S,3S,4R)-2,3,4,5-tetrahydroxypentyl)-6,7-dihydro-1H,5H-pyrido[1,2,3-de]quinoxaline-2,3-dione], for which the “minimum inhibitory concentration (MIC)” value was 12.4 µM (≈ 4.87 µg/mL).
